What was measured:
mtPTP = assay: Ca2+ overload induced mitochondrial swelling in isolated mouse liver mitochondria; assay type: biochemical; conditions: isolated mouse liver mitochondria; average ± SEM, n = 3-41; read-out: Mitochondrial Swelling EC50
Description: We next sought to evaluate the effects of TR001-13 on mtPTP activity in vitro. This was performed on isolated mitochondria. In isolated mitochondria induction of mtPTP opening leads to mitochondrial swelling due to the oncotic pressure gradient created by matrix proteins >1.5 kDa that cannot diffuse through the open pore. In in vitro experiments, where isolated mitochondria are routinely suspended in sucrose-based isosmotic solutions, the change in mitochondrial size can be measured spectrometrically by detecting the decrease in light scattering at 540 nm.
Isolation of mitochondria. C57BL6/N mouse liver mitochondria were prepared from 2 to 6 month old male mice by standard differential centrifugation. Mice fed ad libitum were euthanized with CO2 followed cervical dislocation, their livers were existed and placed in a glass beaker containing ice-cold isolation buffer (IB: 0.25 m sucrose, 10 mm Tris-HCl, 0.1 mm EGTA-Tris, pH 7.4) supplemented with fatty acid free bovine serum albumin. Livers were then cut into small pieces with scissors, rinsed with ice-cold IB, and passed through a pre-chilled Potter homogenizer with Teflon pestle. The homogenate (˜30 mL per liver) was transferred to centrifuge tubes, and unbroken cells and nuclei were removed by centrifugation at 700 g for 10 min at 4° C. The supernatant containing mitochondria and other organelles was transferred to new tubes and centrifuged at 6000 g for 10 min at 4° C. The resulting supernatant was discarded and mitochondrial pellet was carefully suspended in ice-cold IB and spun at 9500 g for 5 min at 4° C. The pellet was suspended in IB to give a protein concentration of ˜60-80 mg/mL and stored on ice. Experiments were started immediately and completed within 5 h. Protein concentration was determined by the Biuret method.
Assessment of mitochondrial swelling. Changes in mitochondrial volume of isolated mouse liver mitochondria were followed in a 96-well clear assay plate at a final volume of 0.2 mL and 0.25 mg/mL mitochondrial protein. Absorbance was read for 30 min at 540 nm on a Tecan Infinite F200 plate reader. Activity of test compounds was addressed as follows: First, 0.1 mL of sucrose assay buffer (SAB: 0.250 m sucrose, 10 mm MOPS-Tris, 0.01 mm EGTA-Tris, 1.0 mm phosphoric acid-Tris, 10 mm glutamate and 5 mm malate, pH 7.4) supplemented with twice the CaCl2 concentration required to induce mitochondrial swelling (which was determined for each preparation of mitochondria, typically 50 μm) was dispensed to the assay plate. A set of wells also contained 2.0 mm EGTA (to prevent mitochondrial swelling). The test wells contained a range of concentrations (in 1:2 serial dilutions) of the compounds of interest or 2% DMSO. Experiments were started by the addition of 0.1 mL of mitochondrial suspension (0.5 mg/mL mitochondria in SAB without respiratory substrates) to the assay plates. EC50s±SE were determined with OriginPro software by applying Hill1 function fitting algorithm on average concentration response data of n=3-41 independent preparations.

[1] = test system: col6a1 zebrafish morphants; assay: Survival of col6a1 zebrafish morphants; assay type: in vivo
From the text: In FIG. 6D, the left panel represents data from embryos injected with a scrambled morpholino (scrd_MO, open squares), Exon 9 col6a1 morpholino (col6a1_MO, closed squares) and col6a1_MO embryos treated with TR001 at 0.1 μm (open circles), 1.0 μm (open triangles), 10 μm (open diamonds). Right panel represents data from embryos injected with a scrambled morpholino (scrd_MO, open squares), Exon 9 col6a1 morpholino (col6a1_MO, closed squares) and col6a1_MO embryos treated with 63 at […] (closed circles), 1.0 μm (closed triangles), 10 μm (closed diamonds). Embryos were treated with oligomycin, FCCP, rotenone (R) and antimycin A (A) as indicated. Results are presented as mean±SEM. Both graphs report data from 5 independent experiments with n=20 for each treatment. Error bars are reported as SEM. FIG. 6E, Survival of DMSO-treated zebrafish injected with the scrambled morpholino (open squares), DMSO-treated col6a1 morphants (closed squares) and col6a1 morphants treated with TR001 (0.1 μm, open triangles; 1.0 μm, open circles; 10 μm, open diamonds) or 63 (0.1 μm, closed triangles; 1.0 μm, closed circles; 10 μm, closed diamonds) were recorded for 30 days. Treatment started at 21 hpf and repeated at 4 dpf (arrows). Data report the percentage of surviving fish and are mean±SEM from 3 independent experiments (n=15 for each condition in each set).
Finally, fish survival was also assessed. Fifty percent of col6a1 morphant embryos treated with 0.1 μm of TR001 survived 7 days longer than col6a1 morphants treated with DMSO (p<0.0001 from 3 to 12 dpf), and 20% were still alive at 30 dpf (i.e., after 29 days of treatment) (FIG. 6E).
Morpholino antisense injection and treatment. Knock-down of col6a1 gene expression was obtained with a previously published morpholino ^[25] with sequence GAGAGCGGAAGACGAACCTTCATTC (SEQ ID NO: 2; GeneTools, Inc.). A control morpholino with no sequence homology in the zebrafish genome was used in parallel (CCTCTTACCTCAGTTACAATTTATA; SEQ ID NO: 3). Zebrafish eggs from wild-type matings were injected at the 1-2 cell stage with approximately 10 nL of 0.1 mm morpholino solution (corresponding to 4 ng of morpholino) using a WPI pneumatic PicoPump PV820 injector (World Precision Instruments, Inc.). Zebrafish embryos were dechorionated at 20 hours post fertilization (hpf) and treated at 21 hpf with increasing doses (0.1, 1 and 10 μm) of both TR001 and 63 compounds dissolved in fish water with 1% DMSO (vehicle).
Survival. Zebrafish survival was monitored every 3 days for 30 days. Drug treatment with both TR001 and 63 dissolved in fish water with 1% DMSO started at 21 hpf. After 3 days of treatment (4 days post fertilization, dpf), zebrafish were moved to a bigger tank (50 mL) with fresh compounds dissolved in 1% DMSO. As a control vehicle, fish water with 1% DMSO was used.

Cc1ccc(Cl)cc1NC(=O)c1cn(-c2ccc(F)c(O)c2)nn1 [TR001, N-(5-chloro-2-methylphenyl)-1-(4-fluoro-3-hydroxyphenyl)-1H-1,2,3-triazole-4-carboxamide]
EC50 (mtPTP): 29 ± 8 nM | days longer survival of fifty percent of embryos than DMSO treated morphants ([1]; 0.1 μm): 7 days | percent still alive at 30 dpf ([1]; 0.1 μm, after 29 days of treatment): 20% | survival (in words) ([1]; 1 μm): effective at improving survival rate | survival (in words) ([1]; 10 μm): ineffective
